Tests used:
[1] = target: T1, MAT2A homodimer (Homo sapiens, UniProt P31153); test: Biochemical assay: inhibition of MAT2A (phosphate release, PiColorLock Gold); details: MAT2A IC50 score; read-out: Enzyme Inhibition (Example 275)
T1 construct: inferred from Ni sepharose purification and imidazole elution; made in house; host or cells: Sf9 insect cells, recombinant baculovirus (Bac to Bac, pFASTBAC1)
Procedure: Mat2A protein was expressed by recombinant baculovirus in SF9 infected cells using the Bac to Bac system cloned into the pFASTBAC1 vector (Invitrogen, Carlsbad, Calif.). Recombinant MAT2A was isolated from the cell lysate of 150 g of infected cells using HP Ni sepharose column chromatography. Recombinant MAT2A homodimer was eluted with 250 and 500 mM imidazole, and fractions containing MAT2A were identified by sodium dodecyl sulfate polyacrylamide gel electrophoresis and pooled.
For determination of the inhibitory potency of compounds against the MAT2A homodimer, protein was diluted to […] in assay buffer (50 mM Tris, pH 8.0, 50 mM KCl, 15 mM MgCl2, 0.3 mM EDTA, 0.005% [w/v] bovine serum albumin [BSA]). Test compound was prepared in 100% dimethyl sulfoxide (DMSO) at 50× the desired final concentration. […] of compound dilution was added to 40 μL of enzyme dilution and the mixture was allowed to equilibrate for 60 minutes at 25° C. The enzymatic assay was initiated by the addition of 10 μL of substrate mix (500 μM ATP, pH 7.0, 400 μM L-methionine in 1× assay buffer), and the mixture was incubated for a further 60 minutes at 25° C. The reaction was halted and the liberated phosphate released by the enzyme in stoichiometric amounts by the production of S-adenosyl methionine (SAM) was measured using the PiColorLock Gold kit (Innova Biosciences, UK). Absolute product amounts were determined by comparison to a standard curve of potassium phosphate buffer, pH 8.0.

[2] = system: SAM in HCT116 human colon carcinoma cell line engineered to delete the MTAP gene (MTAP −/−); test: Cellular assay of target engagement (SAM) by LC-MS/MS; type: cell-based; details: Homo sapiens, HCT-116, 72 h, IC50 score, read-out: Cell 72 h SAM Inhibition (MTAP −/−; Example 276)
Procedure: Measurement of MAT2A activity in cells was made by direct quantitation of the abundance of the product of its enzymatic activity, SAM. Cancer cells were treated with candidate MAT2A inhibitors for a suitable incubation period, and the cells were then lysed using a reagent which quenched any further enzyme activity. Soluble metabolites including SAM were collected and SAM itself was directly measured from the lysate using quantitative LC-MS/MS.
A typical assay was performed using an HCT116 human colon carcinoma cell line which was genetically engineered to delete the MTAP gene (commercially available from Horizon Discovery). This cell line was utilized because it was determined that loss of the MTAP gene predicts sensitivity to MAT2A inhibitors. Cells were plated in 96-well dishes at appropriate cell density. Following 24 hours, cells were then treated with the candidate MAT2A inhibitor. Prior to addition to cells, the compound was first serially diluted in 100% DMSO, typically as a 3-fold serial dilution starting at 500× top dose with 10 dose points including DMSO only control. Compound was then transferred to a working stock plate in cell culture media by adding 5 μl of compound in DMSO to 495 μl of cell culture media. This working stock was then added to cells via a further 5-fold dilution, by adding 25 μl of working stock to 100 μl of cells in culture media. Following compound addition, cells were incubated at 37° C./5% CO2 for 72 hrs.
To quantitate SAM levels following compound treatment, cells were gently washed once in Ammonium Carbonate buffer (75 mM at pH 7.4), placed on dry ice, and lysed with metabolite extraction buffer (80% cold methanol and 20% water (v/v) with acetic acid at 1 M final concentration with 200 ng/mL deuterated d3-SAM as internal control). Following centrifugation at 4° C. at 3,200 rpm for 30 minutes, the supernatant was collected and stored at −80° C. until analysis by Liquid Chromatography with tandem Mass Spectrometry (LC-MS/MS). LC-MS/MS analysis was performed using an API6500 Mass Spectrometer (Sciex, Framingham, Mass., USA) operating in positive ion spray mode and equipped with a Waters UPLC Acquity (Waters, Milford, Mass., USA) BEH Amide column. Multiple Reaction Monitoring data was acquired for SAM and the d3-SAM standard, using a mass transition pair at m/z 399.2→250.1 and 402.2→250.1, respectively. In a typical LC-MS/MS analysis, the initial flow rate was 0.5 ml/min of 25% mobile phase A (acetonitrile and water at 5:95 (v/v) with 1% formic acid and 10 mM ammonium acetate) and 75% mobile phase B (acetonitrile and water at 95:5 (v/v) with 1% formic acid and 10 mM ammonium acetate), 0.2-0.5 minutes with 75%-35% mobile phase B, 25%-65% mobile phase A, at 0.5 min 65% mobile phase A and 35% mobile phase B, 1.0-1.1 minutes with 35%-75% mobile phase B, 65%-25% mobile phase A, at 1.1 min 25% mobile phase A and 75% mobile phase B with a total run time of 1.5 minutes.

[3] = system: HCT116 MTAP−/−; test: Inhibition of cellular proliferation (Cell Titer Glo), HCT116 MTAP−/−; type: cell-based, human; details: Homo sapiens, HCT-116, 96 h, 4 days, IC50 score, read-out: 4 Day Relative Growth Inhibition (MTAP −/−; Example 277)
Procedure: (§1) Test compound impact on cancer cell growth was assessed by treating cancer cells with compound for 4 days and then measuring proliferation using an ATP-based cell proliferation readout (Cell Titer Glo, Promega Corporation).
(§2) In a typical assay an isogenic pair of HCT116 human colon carcinoma cell lines which vary only in MTAP deletion status (HCT116 MTAP+/+ and HCT116 MTAP−/−) were plated in 96-well dishes at appropriate cell density. Following 24 hours, cells were then treated with the candidate MAT2A inhibitor. Prior to addition to cells, the compound was first serially diluted in 100% DMSO, typically as a 3-fold serial dilution starting at 500× top dose with 10 dose points including DMSO only control. Compound was then transferred to a working stock plate in cell culture media by adding 5 μl of compound in DMSO to 495 μl of cell culture media. This working stock was then added to cells via a further 5-fold dilution, by adding 25 μl of working stock to 100 μl of cells in culture media. Following compound addition, cells were incubated at 37° C./5% C02 for 4 days.
(§3) To measure inhibition of cellular proliferation, cells were allowed to equilibrate to room temperature for 30 minutes, and were then treated with 125 μl of Cell Titer Glo reagent. The plate was then covered with aluminum foil and shaken for 15 minutes to ensure complete mixing and full cell lysis. Luminescent signal was then measured using a plate-based luminometer Veritas version 1.9.2 using ATP standard curve to confirm assay reproducibility from run to run. This luminescence measure was converted to a proliferation index by subtracting from each data point the ATP luminescence signal measured from a bank (no cells) well and dividing by the ATP luminescence signal measured in 0.2% DMSO control well adjusted for signal in blank well. Compound activity was then represented as a percentage change in proliferation relative to a within-plate DMSO control against log10 of compound concentration in molar (M) units.

[4] = system: HCT116 MTAP+/+; test: Inhibition of cellular proliferation (Cell Titer Glo), HCT116 MTAP+/+; type: cell-based, human; details: Homo sapiens, HCT-116, 96 h, 4 days, IC50 score, read-out: 4 Day Relative Growth Inhibition (MTAP +/+; Example 277)
Procedure: as §1, §2, §3

T1 sequence (P31153 whole entry): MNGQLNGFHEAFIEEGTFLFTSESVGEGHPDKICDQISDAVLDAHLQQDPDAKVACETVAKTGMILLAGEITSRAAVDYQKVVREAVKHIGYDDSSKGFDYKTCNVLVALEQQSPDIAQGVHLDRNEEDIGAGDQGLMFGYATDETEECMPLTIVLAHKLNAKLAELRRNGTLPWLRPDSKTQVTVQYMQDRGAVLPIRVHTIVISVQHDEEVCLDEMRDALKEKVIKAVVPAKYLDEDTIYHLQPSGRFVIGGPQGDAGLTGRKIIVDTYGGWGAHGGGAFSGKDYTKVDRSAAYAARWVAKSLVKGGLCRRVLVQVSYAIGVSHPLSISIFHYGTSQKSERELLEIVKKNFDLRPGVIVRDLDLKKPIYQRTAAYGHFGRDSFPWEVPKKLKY

| Structure (SMILES) | IC50 [1] [nM] | IC50 [2] [nM] | IC50 [3] [nM] | IC50 [4] [nM] |
| --- | --- | --- | --- | --- |
| Cn1cc2cc(-n3cc4cnc(NCC(F)(F)F)nc4c(-c4ccc(Br)cc4)c3=O)ccc2n1 [Example 103-A] | < 100 | < 100 | < 100 | > 10000 |
| Cn1cnc2ccc(-n3cc4ccc(OCC(F)(F)F)nc4c(-c4ccc(C(F)(F)F)nc4)c3=O)cc21 [Example 128-A] | < 100 | < 100 | < 100 | 100 to 10000 |
| Cc1c2cc(-n3cc4cnc(NCC(F)(F)F)nc4c(-c4ccc(Cl)cc4)c3=O)ccc2nn1C [Example 132, 8-(4-chlorophenyl)-6-(2,3-dimethyl-2H-indazol-5-yl)-2-(2,2,2-trifluoroethylamino)pyrido[4,3-d]pyrimidin-7(6)-one] | < 100 | < 100 | < 100 | > 10000 |
| CCOc1cnc2cn(-c3ccc4nn(C)cc4c3)c(=O)c(-c3ccc(OC(F)F)cc3)c2n1 [Example 145-A] | < 100 | < 100 | < 100 | 100 to 10000 |
| CCOc1ccc2cn(-c3ccc4nn(C)cc4c3)c(=O)c(-c3ccc(OC(F)(F)F)nc3)c2n1 [Example 133-A] | < 100 | < 100 | < 100 |  |
| O=C1N(c2cnoc2)Cc2cnc(NCC3CC3)nc2C12CCN(Cc1ccon1)C2 (stereo not shown) [Example 106, 2-((cyclopropylmethyl)amino)-1′-(isoxazol-3-ylmethyl)-6-(isoxazol-4-yl)-5H-spiro[pyrido[4,3-d]pyrimidine-8,3′-pyrrolidin]-7(6H)-one] | 1000 to 10000 |  |  |  |
| Cn1cc2cc(-n3cc4ccc(CS(C)(=O)=O)nc4c(-c4ccc(Cl)cc4)c3=O)ccc2n1 [Example 135-A, 8-(4-chlorophenyl)-6-(2-methyl-2H-indazol-5-yl)-2-((methylsulfonyl)methyl)-1,6-naphthyridin-7(6H)-one] | 100 to 1000 |  |  |  |
| COc1ccc(N2Cc3cnc(NCC(F)(F)F)nc3C3(CCN(c4nnc(N)s4)CC3)C2=O)cc1 [Example 117, 1-(5-amino-1,3,4-thiadiazol-2-yl)-6′-(4-methoxyphenyl)-2′-((2,2,2-trifluoroethyl)amino)-5′H-spiro[piperidine-4,8′-pyrido[4,3-d]pyrimidin]-7′(6′H)-one] | 1000 to 10000 |  |  |  |
| COC(=O)C1CC(N2CCC3(C2)C(=O)N(c2ccc(OC)cc2)Cc2cnc(NCC4CC4)nc23)C1 (stereo not shown) [Example 105, methyl 3-(2-((cyclopropylmethyl)amino)-6-(4-methoxyphenyl)-7-oxo-6,7-dihydro-5H-spiro[pyrido[4,3-d]pyrimidine-8,3′-pyrrolidin]-1′-yl)cyclobutanecarboxylate] | 1000 to 10000 |  |  |  |
| O=c1c(-c2ccc(OC(F)F)cc2)c2nc(NCC(F)(F)F)ncc2cn1-c1ccc2nn(C3CC3)cc2c1 [Example 154, 6-(2-cyclopropyl-2H-indazol-5-yl)-8-(4-(difluoromethoxy)phenyl)-2-((2,2,2-trifluoroethyl)amino)pyrido[4,3-d]pyrimidin-7(6H)-one] | < 100 |  |  |  |

The next lines start with the values.

| IC50 [1] [nM] | IC50 [2] [nM] | IC50 [3] [nM] | IC50 [4] [nM] | Structure (SMILES) |
| --- | --- | --- | --- | --- |
| < 100 | < 100 | < 100 | > 10000 | CCCc1ccc2cn(-c3ccc4ncn(C)c4c3)c(=O)c(-c3ccc(OC(F)F)cc3)c2n1 [Example 260, 8-(4-(difluoromethoxy)phenyl)-6-(1-methyl-1H-benzo[d]imidazol-6-yl)-2-propyl-1,6-naphthyridin-7(6H)-one] |
| < 100 |  |  |  | O=c1c(-c2ccc(C3CC3)cc2)c2nc(NCC(F)(F)F)ncc2cn1-c1ccc2nccn2c1 [Example 165, 8-(4-cyclopropylphenyl)-6-(imidazo[1,2-a]pyridin-6-yl)-2-((2,2,2-trifluoroethyl)amino)pyrido[4,3-d]pyrimidin-7(6)-one] |
| < 100 |  |  |  | Cc1ccc2cc(-n3cc4cnc(NCC(F)(F)F)nc4c(-c4ccc(C5CC5)cc4)c3=O)ccc2n1 [Example 162, 8-(4-cyclopropylphenyl)-6-(2-methylquinolin-6-yl)-2-((2,2,2-trifluoroethyl)amino)pyrido[4,3-d]pyrimidin-7(6H)-one] |
| < 100 |  |  |  | O=c1c(-c2ccc(OC(F)F)cc2)c2nc(OC3CC3)ncc2cn1-c1ccc2ncccc2c1 [Example 273, 2-cyclopropoxy-8-(4-(difluoromethoxy)phenyl)-6-(quinolin-6-yl)pyrido[4,3-d]pyrimidin-7(6H)-one] |
| 100 to 1000 |  |  |  | COc1ccc(-c2c(=O)n(-c3cnoc3)cc3cnc(NCC(F)(F)F)nc23)cc1 [Example 207, 6-(isoxazol-4-yl)-8-(4-methoxyphenyl)-2-((2,2,2-trifluoroethyl)amino)pyrido[4,3-d]pyrimidin-7(6H)-one] |
| < 100 |  |  |  | Cn1cc2cc(-n3cc4cnc(NCC(F)F)nc4c(-c4ccc(OC(F)F)cc4)c3=O)ccc2n1 [Example 175, 2-((2,2-difluoroethyl)amino)-8-(4-(difluoromethoxy)phenyl)-6-(2-methyl-2H-indazol-5-yl)pyrido[4,3-d]pyrimidin-7(6H)-one] |
| 100 to 1000 |  |  |  | O=c1c(-c2ccc(OC(F)F)cc2)c2nc(OCC(F)(F)F)ncc2cn1-c1ccc2nc[nH]c2c1 [Example 266, 6-(H-benzo[d]imidazol-6-yl)-8-(4-(difluoromethoxy)phenyl)-2-(2,2,2-trifluoroethoxy)pyrido[4,3-d]pyrimidin-7(6H)-one] |

Reference: patent US11524960B2, “Heterobicyclic inhibitors of MAT2A and methods of use for treating cancer” (AGIOS PHARMACEUTICALS, INC., priority 2018, dated 2022)
